From article PMC10589286, “Insights into the missing apiosylation step in flavonoid apiosides biosynthesis of Leguminosae plants” (Nature Communications, 2023)

Key:
SsApiGT = target: T1, SsApiGT (Spatholobus suberectus, UniProt A0AA51YHU4); test: enzyme catalysis, LC/MS; format: biochemical; conditions: sugar donor supplied by UAXS system; acceptor only in figure
T1 construct: full length, synthesized gene, pET-28a(+), E. coli BL21(DE3), nickel-purified
T1 sequence (A0AA51YHU4 1-448): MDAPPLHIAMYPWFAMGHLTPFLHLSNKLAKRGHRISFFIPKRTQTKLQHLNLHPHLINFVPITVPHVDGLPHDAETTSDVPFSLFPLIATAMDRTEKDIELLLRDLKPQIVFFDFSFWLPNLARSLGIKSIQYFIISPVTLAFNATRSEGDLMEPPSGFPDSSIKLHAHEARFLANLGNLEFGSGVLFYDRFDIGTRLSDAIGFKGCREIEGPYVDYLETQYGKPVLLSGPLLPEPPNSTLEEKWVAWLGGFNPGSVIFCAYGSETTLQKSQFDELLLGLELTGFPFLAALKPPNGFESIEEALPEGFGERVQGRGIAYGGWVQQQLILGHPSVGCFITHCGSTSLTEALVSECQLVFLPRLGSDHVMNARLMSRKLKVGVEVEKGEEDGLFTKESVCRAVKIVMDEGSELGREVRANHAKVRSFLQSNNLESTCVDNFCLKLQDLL

PtApiGT = target: T2, PtApiGT (Pueraria montana, UniProt A0AA51YHU3); test: enzyme catalysis, LC/MS; format: biochemical; conditions: sugar donor supplied by UAXS system; acceptor only in figure
T2 construct: full length, pET-28a(+), E. coli BL21(DE3), nickel-purified
T2 sequence (A0AA51YHU3 1-457): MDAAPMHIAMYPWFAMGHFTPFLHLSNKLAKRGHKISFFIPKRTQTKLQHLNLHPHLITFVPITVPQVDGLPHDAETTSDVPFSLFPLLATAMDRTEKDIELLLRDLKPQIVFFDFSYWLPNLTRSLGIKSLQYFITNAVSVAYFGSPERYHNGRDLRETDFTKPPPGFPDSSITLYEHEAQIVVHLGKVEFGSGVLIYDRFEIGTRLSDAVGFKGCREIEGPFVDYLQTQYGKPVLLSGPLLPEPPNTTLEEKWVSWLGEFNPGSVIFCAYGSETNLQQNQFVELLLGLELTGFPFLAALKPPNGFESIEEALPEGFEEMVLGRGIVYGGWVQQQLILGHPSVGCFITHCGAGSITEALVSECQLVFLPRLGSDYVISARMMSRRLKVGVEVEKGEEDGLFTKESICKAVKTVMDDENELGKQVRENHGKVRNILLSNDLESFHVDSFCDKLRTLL

GiApiGT = target: T3, GiApiGT (Glycyrrhiza inflata, UniProt A0AA51YKD5); test: enzyme catalysis, LC/MS; format: biochemical; conditions: sugar donor supplied by UAXS system; acceptor only in figure
T3 construct: full length, pET-28a(+), E. coli BL21(DE3), nickel-purified
T3 sequence (A0AA51YKD5 1-454): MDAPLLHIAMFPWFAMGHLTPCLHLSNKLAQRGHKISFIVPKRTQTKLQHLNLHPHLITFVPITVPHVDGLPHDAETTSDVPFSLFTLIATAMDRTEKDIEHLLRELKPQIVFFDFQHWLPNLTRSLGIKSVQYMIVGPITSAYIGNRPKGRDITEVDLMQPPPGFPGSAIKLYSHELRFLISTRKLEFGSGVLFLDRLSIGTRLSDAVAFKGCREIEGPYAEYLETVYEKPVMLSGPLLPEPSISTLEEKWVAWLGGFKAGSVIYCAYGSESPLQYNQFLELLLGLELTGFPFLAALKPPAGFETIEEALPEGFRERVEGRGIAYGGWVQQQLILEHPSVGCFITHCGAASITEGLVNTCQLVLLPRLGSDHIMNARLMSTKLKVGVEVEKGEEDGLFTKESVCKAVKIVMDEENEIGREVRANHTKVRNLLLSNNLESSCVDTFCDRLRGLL

GgApiGT = target: T4, GgApiGT (Glycyrrhiza glabra, UniProt A0AA51YKR8); test: enzyme catalysis, LC/MS; format: biochemical; conditions: sugar donor supplied by UAXS system; acceptor only in figure
T4 construct: full length, pET-28a(+), E. coli BL21(DE3), nickel-purified
T4 sequence (A0AA51YKR8 1-454): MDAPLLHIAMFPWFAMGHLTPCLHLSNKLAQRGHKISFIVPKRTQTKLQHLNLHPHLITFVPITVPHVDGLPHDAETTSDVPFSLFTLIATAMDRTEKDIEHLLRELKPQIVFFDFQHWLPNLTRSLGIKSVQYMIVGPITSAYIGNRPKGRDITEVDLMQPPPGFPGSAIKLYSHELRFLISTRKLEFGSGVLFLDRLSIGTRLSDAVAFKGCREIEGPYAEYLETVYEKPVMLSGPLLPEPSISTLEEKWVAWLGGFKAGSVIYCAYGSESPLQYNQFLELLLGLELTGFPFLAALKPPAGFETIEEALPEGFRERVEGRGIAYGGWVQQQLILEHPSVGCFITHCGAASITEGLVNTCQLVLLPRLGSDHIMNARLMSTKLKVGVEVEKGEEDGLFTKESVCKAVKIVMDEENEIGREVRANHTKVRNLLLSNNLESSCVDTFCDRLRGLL

GuApiGT = target: T5, GuApiGT (Glycyrrhiza uralensis, UniProt A0AA51Z2W4, DEL371-371/H373Q); test: HPLC/MS conversion; format: biochemical; conditions: 0.5 mM UDP-Xyl, acceptor isoliquiritin (2) 0.1 mM, pH 8.0, 37 °C, 3 h; printed S371/H373Q (S371 deleted)
T5 construct: full length, 454 aa (ORF 1365 bp), pET-28a(+) His-tagged, E. coli BL21(DE3), nickel-purified
T5 sequence (A0AA51Z2W4 entry or part of it DEL371-371/H373Q): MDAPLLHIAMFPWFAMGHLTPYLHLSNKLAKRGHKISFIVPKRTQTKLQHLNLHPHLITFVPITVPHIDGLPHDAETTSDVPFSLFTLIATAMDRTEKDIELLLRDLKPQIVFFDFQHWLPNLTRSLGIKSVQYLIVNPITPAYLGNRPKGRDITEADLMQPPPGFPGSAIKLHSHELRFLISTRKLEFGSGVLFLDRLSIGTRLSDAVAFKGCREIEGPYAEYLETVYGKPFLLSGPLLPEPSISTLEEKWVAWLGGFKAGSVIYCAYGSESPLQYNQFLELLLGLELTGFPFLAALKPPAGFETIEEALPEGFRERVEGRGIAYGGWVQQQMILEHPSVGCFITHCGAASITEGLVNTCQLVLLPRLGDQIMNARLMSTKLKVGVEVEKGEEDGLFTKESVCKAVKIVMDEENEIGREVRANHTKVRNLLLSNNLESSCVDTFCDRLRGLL

[1] = substrate: O=C(/C=C/c1ccc(O[C@@H]2O[C@H](CO)[C@@H](O)[C@H](O)[C@H]2O)cc1)c1ccc(O)cc1O; test: HPLC, Michaelis-Menten fit; format: biochemical, Glycyrrhiza uralensis; conditions: 480 µmol/L saturated UDP-apiose, pH 8.0 phosphate, 37 °C, 15 min

With O=c1ccn([C@@H]2O[C@H](COP(=O)(O)OP(=O)(O)O[C@H]3OC[C@](O)(CO)[C@H]3O)[C@@H](O)[C@H]2O)c(=O)[nH]1 [UDP-Api] the “enzyme catalysis, LC/MS” value (SsApiGT) was “identified them as apiosyltransferases by enzyme catalysis reactions”, the “enzyme catalysis, LC/MS” value (PtApiGT) was “identified them as apiosyltransferases by enzyme catalysis reactions” and the “enzyme catalysis, LC/MS” value (GiApiGT) was “identified them as apiosyltransferases by enzyme catalysis reactions”. For the same molecule, the “enzyme catalysis, LC/MS” value (GgApiGT) was “identified them as apiosyltransferases by enzyme catalysis reactions”.

O=c1ccn([C@@H]2O[C@H](COP(=O)(O)OP(=O)(O)O[C@H]3OC[C@@H](O)[C@H](O)[C@H]3O)[C@@H](O)[C@H]2O)c(=O)[nH]1 [UDP-Xyl] was tested, and the HPLC/MS conversion (GuApiGT) was “the S371/H373Q mutant could accept UDP-Xyl as sugar donor”.

B1: GuApiGT (Glycyrrhiza uralensis) (protein)
chain: MDAPLLHIAMFPWFAMGHLTPYLHLSNKLAKRGHKISFIVPKRTQTKLQHLNLHPHLITFVPITVPHIDGLPHDAETTSDVPFSLFTLIATAMDRTEKDIELLLRDLKPQIVFFDFQHWLPNLTRSLGIKSVQYLIVNPITPAYLGNRPKGRDITEADLMQPPPGFPGSAIKLHSHELRFLISTRKLEFGSGVLFLDRLSIGTRLSDAVAFKGCREIEGPYAEYLETVYGKPFLLSGPLLPEPSISTLEEKWVAWLGGFKAGSVIYCAYGSESPLQYNQFLELLLGLELTGFPFLAALKPPAGFETIEEALPEGFRERVEGRGIAYGGWVQQQMILEHPSVGCFITHCGAASITEGLVNTCQLVLLPRLGSDHIMNARLMSTKLKVGVEVEKGEEDGLFTKESVCKAVKIVMDEENEIGREVRANHTKVRNLLLSNNLESSCVDTFCDRLRGLL
notes: full length, 454 aa (ORF 1365 bp), pET-28a(+) His-tagged, E. coli BL21(DE3), nickel-purified
With B1 the Km [1] was 2.59 ± 0.23 µM and the kcat [1] was 0.11 s⁻¹.
